Test system: MV-4-11 cells
Assay: Gene expression microarray analysis (Affymetrix PrimeView) and GSEA
Format: cell-based, human
Parameters: RFU PODN (11730768_x_at) / Fold change /veh PODN (11730768_x_at) / RFU LINC00158 (11744669_a_at) / Fold change /veh LINC00158 (11744669_a_at) / RFU DUSP10 (11751237_a_at) / Fold change /veh DUSP10 (11751237_a_at) / RFU ID3 (11757404_x_at) / Fold change /veh ID3 (11757404_x_at) / RFU PLEKHG5 (11737974_s_at) / Fold change /veh PLEKHG5 (11737974_s_at) / RFU LRRC4B (11730491_at) / Fold change /veh LRRC4B (11730491_at) / RFU GIMAP4 (11747438_a_at) / Fold change /veh GIMAP4 (11747438_a_at) / RFU KRT8 (11758183_x_at) / Fold change /veh KRT8 (11758183_x_at) / RFU CNN1 (11734310_a_at) / Fold change /veh CNN1 (11734310_a_at) / RFU VPS37D (11726825_at) / Fold change /veh VPS37D (11726825_at) / RFU C10orf10 (11716522_x_at) / Fold change /veh C10orf10 (11716522_x_at) / RFU KIR2DL2 /// KIR2DL4 /// KIR2DL5A /// KIR2DL5B /// KIR2DS1 /// KIR2DS2 /// KIR2DS3 /// KIR2DS4 /// KIR3DL3 /// KIR3DL3 /// KIR3DS1 (11738374_at) / Fold change /veh KIR2DL2 /// KIR2DL4 /// KIR2DL5A /// KIR2DL5B /// KIR2DS1 /// KIR2DS2 /// KIR2DS3 /// KIR2DS4 /// KIR3DL3 /// KIR3DL3 /// KIR3DS1 (11738374_at) / RFU C1QL1 (11718748_at) / Fold change /veh C1QL1 (11718748_at) / RFU TMPRSS4 (11747572_a_at) / Fold change /veh TMPRSS4 (11747572_a_at) / RFU HAMP (11756126_x_at) / Fold change /veh HAMP (11756126_x_at) / RFU RNFT2 (11725882_a_at) / Fold change /veh RNFT2 (11725882_a_at) / RFU NR4A2 (11747474_a_at) / Fold change /veh NR4A2 (11747474_a_at) / RFU ABCC12 (11746883_a_at) / Fold change /veh ABCC12 (11746883_a_at) / RFU TMEM136 (11760407_x_at) / Fold change /veh TMEM136 (11760407_x_at) / RFU CLDN22 /// WWC2 (11732394_at) / Fold change /veh CLDN22 /// WWC2 (11732394_at) / RFU HLA-DPB1 (11760878_x_at) / Fold change /veh HLA-DPB1 (11760878_x_at) / RFU SPINT1 (11716480_a_at) / Fold change /veh SPINT1 (11716480_a_at) / RFU GAP43 (11754022_s_at) / Fold change /veh GAP43 (11754022_s_at) / RFU A4GNT (11735810_at) / Fold change /veh A4GNT (11735810_at) / RFU PRB3 (11715151_x_at) / Fold change /veh PRB3 (11715151_x_at) / RFU TUBB4B (11761932_at) / Fold change /veh TUBB4B (11761932_at) / RFU CAPN14 (11732068_a_at) / Fold change /veh CAPN14 (11732068_a_at) / RFU TMCC2 (11721928_a_at) / Fold change /veh TMCC2 (11721928_a_at) / RFU IRGQ (11745062_a_at) / Fold change /veh IRGQ (11745062_a_at) / RFU FAM174B (11720279_a_at) / Fold change /veh FAM174B (11720279_a_at) / RFU TMPRSS4 (11748680_a_at) / Fold change /veh TMPRSS4 (11748680_a_at) / RFU FAM212B (11763350_a_at) / Fold change /veh FAM212B (11763350_a_at) / RFU PLEKHG5 (11743358_a_at) / Fold change /veh PLEKHG5 (11743358_a_at) / RFU ZSCAN30 (11745921_a_at) / Fold change /veh ZSCAN30 (11745921_a_at) / RFU CMKLR1 (11741424_a_at) / Fold change /veh CMKLR1 (11741424_a_at) / RFU LOC101060620 /// MAPK8IP1 (11723275_at) / Fold change /veh LOC101060620 /// MAPK8IP1 (11723275_at) / RFU SPTSSB (11747773_x_at) / Fold change /veh SPTSSB (11747773_x_at) / RFU PRSS12 (11739890_at) / Fold change /veh PRSS12 (11739890_at) / RFU BIN1 (11741810_x_at) / Fold change /veh BIN1 (11741810_x_at) / RFU WNT11 (11732464_a_at) / Fold change /veh WNT11 (11732464_a_at) / RFU C10orf10 (11716521_a_at) / Fold change /veh C10orf10 (11716521_a_at) / RFU C5orf56 (11738089_at) / Fold change /veh C5orf56 (11738089_at) / RFU CYB561 (11721691_x_at) / Fold change /veh CYB561 (11721691_x_at) / RFU ANKRD19P (11752326_a_at) / Fold change /veh ANKRD19P (11752326_a_at) / RFU OR2T12 /// OR2T33 /// OR2T8 (11738714_s_at) / Fold change /veh OR2T12 /// OR2T33 /// OR2T8 (11738714_s_at) / RFU VCAN (11748164_a_at) / Fold change /veh VCAN (11748164_a_at) / RFU JSRP1 (11732532_at) / Fold change /veh JSRP1 (11732532_at) / RFU KRTAP10-11 (11738290_x_at) / Fold change /veh KRTAP10-11 (11738290_x_at) / RFU MYO3A (11730013_a_at) / Fold change /veh MYO3A (11730013_a_at) / RFU EBF3 (11725865_a_at) / Fold change /veh EBF3 (11725865_a_at) / RFU CAMK2N1 (11719241_x_at) / Fold change /veh CAMK2N1 (11719241_x_at) / RFU C5orf56 (11738088_a_at) / Fold change /veh C5orf56 (11738088_a_at) / RFU OLFML3 (11715873_a_at) / Fold change /veh OLFML3 (11715873_a_at) / RFU LOC100653217 /// NTM (11731650_a_at) / Fold change /veh LOC100653217 /// NTM (11731650_a_at) / RFU MAPK11 (11762145_a_at) / Fold change /veh MAPK11 (11762145_a_at) / RFU FIZ1 (11724087_x_at) / Fold change /veh FIZ1 (11724087_x_at) / RFU OASL (11726364_x_at) / Fold change /veh OASL (11726364_x_at) / RFU SOX15 (11748057_x_at) / Fold change /veh SOX15 (11748057_x_at) / RFU CD79A (11719716_a_at) / Fold change /veh CD79A (11719716_a_at) / RFU HIST1H1D (11736915_at) / Fold change /veh HIST1H1D (11736915_at) / RFU CASKIN2 (11723855_a_at) / Fold change /veh CASKIN2 (11723855_a_at) / RFU LOC730098 (11760151_x_at) / Fold change /veh LOC730098 (11760151_x_at) / RFU OR4N2 (11742367_at) / Fold change /veh OR4N2 (11742367_at) / RFU PRRT2 (11749266_a_at) / Fold change /veh PRRT2 (11749266_a_at) / RFU SNX32 (11753110_a_at) / Fold change /veh SNX32 (11753110_a_at) / RFU CDHR5 (11726645_a_at) / Fold change /veh CDHR5 (11726645_a_at) / RFU RCAN1 (11760418_a_at) / Fold change /veh RCAN1 (11760418_a_at) / RFU FAM167A (11723789_a_at) / Fold change /veh FAM167A (11723789_a_at) / RFU FAM26E (11764081_at) / Fold change /veh FAM26E (11764081_at) / RFU ISYNA1 (11749810_s_at) / Fold change /veh ISYNA1 (11749810_s_at) / RFU ACY1 (11761880_at) / Fold change /veh ACY1 (11761880_at) / RFU 11764098_at / Fold change /veh 11764098_at / RFU SAMD14 (11745864_x_at) / Fold change /veh SAMD14 (11745864_x_at) / RFU NPB (11741838_a_at) / Fold change /veh NPB (11741838_a_at) / RFU TMPRSS6 (11731388_a_at) / Fold change /veh TMPRSS6 (11731388_a_at) / RFU KRTAP10-2 (11738614_at) / Fold change /veh KRTAP10-2 (11738614_at) / RFU ARHGAP8 /// PRR5-ARHGAP8 (11727945_x_at) / Fold change /veh ARHGAP8 /// PRR5-ARHGAP8 (11727945_x_at) / RFU KRTAP5-7 /// NADSYN1 (11734609_at) / Fold change /veh KRTAP5-7 /// NADSYN1 (11734609_at) / RFU RASL12 (11751679_a_at) / Fold change /veh RASL12 (11751679_a_at) / RFU CDKN2B (11736163_a_at) / Fold change /veh CDKN2B (11736163_a_at) / RFU PRF1 (11729649_at) / Fold change /veh PRF1 (11729649_at) / RFU, ZNF638 /// ZNF638-IT1 / Fold change vs veh, ZNF638 /// ZNF638-IT1 / RFU, PANK3 / Fold change vs veh, PANK3 / RFU, SH3YL1 / Fold change vs veh, SH3YL1 / RFU, ZEB2 / Fold change vs veh, ZEB2 / RFU, NRIP1 / Fold change vs veh, NRIP1 / RFU, PTTG1IP / Fold change vs veh, PTTG1IP / RFU, CAPN2 / Fold change vs veh, CAPN2 / RFU, MED14 / Fold change vs veh, MED14 / RFU, SNORA58 / Fold change vs veh, SNORA58 / RFU, C1orf63 / Fold change vs veh, C1orf63 / RFU, LRRFIP1 / Fold change vs veh, LRRFIP1 / RFU, NDUFAF7 / Fold change vs veh, NDUFAF7 / RFU, SLC12A2 / Fold change vs veh, SLC12A2 / RFU, IBTK / Fold change vs veh, IBTK / RFU, ESF1 / Fold change vs veh, ESF1 / Fold change vs veh, TMEM50B / RFU, TAOK1 / Fold change vs veh, TAOK1 / RFU, ACBD3 / Fold change vs veh, ACBD3 / RFU, TMA16 / Fold change vs veh, TMA16 / RFU, RWDD3 / Fold change vs veh, RWDD3 / RFU, BCAT1 / Fold change vs veh, BCAT1 / RFU, EDEM3 / Fold change vs veh, EDEM3 / RFU, TMEM33 / Fold change vs veh, TMEM33 / RFU, WDR75 / Fold change vs veh, WDR75 / RFU, AHCTF1 / Fold change vs veh, AHCTF1 / RFU, TFRC / Fold change vs veh, TFRC / RFU, ZDHHC17 / Fold change vs veh, ZDHHC17 / RFU, NOM1 / Fold change vs veh, NOM1 / RFU, ARL8B / Fold change vs veh, ARL8B / RFU, ZBTB11 / Fold change vs veh, ZBTB11 / RFU, TAMM41 / Fold change vs veh, TAMM41 / RFU, KIAA1704 /// LOC100996395 / Fold change vs veh, KIAA1704 /// LOC100996395 / RFU, ING1 / Fold change vs veh, ING1 / RFU, TRMT61B / Fold change vs veh, TRMT61B / RFU, FUBP3 / Fold change vs veh, FUBP3 / RFU, TP53 / Fold change vs veh, TP53 / RFU, TNKS2 / Fold change vs veh, TNKS2 / RFU, ZFP14 / Fold change vs veh, ZFP14 / RFU, ACTR2 / Fold change vs veh, ACTR2 / RFU, PPP3R1 / Fold change vs veh, PPP3R1 / RFU, PIK3R1 / Fold change vs veh, PIK3R1 / RFU, HNRNPA1 / Fold change vs veh, HNRNPA1 / RFU, RNF170 / Fold change vs veh, RNF170 / RFU, ZNF28 / Fold change vs veh, ZNF28 / RFU, RNGTT / Fold change vs veh, RNGTT / RFU, OGT / Fold change vs veh, OGT / RFU, BRD1 / Fold change vs veh, BRD1 / RFU, MARS / Fold change vs veh, MARS / RFU, ZNF655 / Fold change vs veh, ZNF655 / RFU, FAHD1 / Fold change vs veh, FAHD1 / RFU, BDP1 / Fold change vs veh, BDP1 / RFU, LRRCC1 / Fold change vs veh, LRRCC1 / RFU, ARID1A / Fold change vs veh, ARID1A / RFU, ZNF146 / Fold change vs veh, ZNF146 / RFU, ZNF330 / Fold change vs veh, ZNF330 / RFU, GPN3 / Fold change vs veh, GPN3 / RFU, C9orf123 / Fold change vs veh, C9orf123 / RFU, N4BP2L2 / Fold change vs veh, N4BP2L2 / RFU, ARFIP1 / Fold change vs veh, ARFIP1 / RFU, FAM179B / Fold change vs veh, FAM179B / RFU, BCL10 / Fold change vs veh, BCL10 / RFU, UHRF1BP1L / Fold change vs veh, UHRF1BP1L / RFU, BET1 / Fold change vs veh, BET1 / RFU, CNOT2 / Fold change vs veh, CNOT2 / RFU, ZNF268 / Fold change vs veh, ZNF268 / Fold change vs veh, ZNF507 / RFU, DGCR2 / Fold change vs veh, DGCR2 / RFU, WDSUB1 / Fold change vs veh, WDSUB1 / Fold change vs veh, HSP90B1 /// MIR3652 / RFU, ADSS / Fold change vs veh, ADSS / RFU, GK / Fold change vs veh, GK / RFU, ZNF148 / Fold change vs veh, ZNF148 / RFU, TAF9 / Fold change vs veh, TAF9 / RFU, SLC1A5 / Fold change vs veh, SLC1A5 / RFU, SLMO2 / Fold change vs veh, SLMO2 / RFU, ABCC4 / Fold change vs veh, ABCC4 / RFU, LOC101060439 /// RAP1B / Fold change vs veh, LOC101060439 /// RAP1B / RFU, RFX7 / Fold change vs veh, RFX7 / RFU, GTPBP10 / Fold change vs veh, GTPBP10 / RFU, CNEP1R1 / Fold change vs veh, CNEP1R1 / RFU, BIVM-ERCC5 /// ERCC5 / Fold change vs veh, BIVM-ERCC5 /// ERCC5 / RFU, ILF3 / Fold change vs veh, ILF3 / RFU 11762660_at / Fold change /veh 11762660_at / RFU VCAN (11757783_s_at) / Fold change /veh VCAN (11757783_s_at) / RFU DDX43 (11728927_at) / Fold change /veh DDX43 (11728927_at) / RFU KRT8 (11758188_x_at) / Fold change /veh KRT8 (11758188_x_at) / RFU NKD1 (11759106_at) / Fold change /veh NKD1 (11759106_at) / RFU SRD5A1 (11742802_a_at) / Fold change /veh SRD5A1 (11742802_a_at) / RFU TPSAB1 /// TPSB2 (11721975_s_at) / Fold change /veh TPSAB1 /// TPSB2 (11721975_s_at) / RFU GSTM3 (11746129_a_at) / Fold change /veh GSTM3 (11746129_a_at) / RFU IL23R (11737362_x_at) / Fold change /veh IL23R (11737362_x_at) / RFU TMEM51 (11727254_a_at) / Fold change /veh TMEM51 (11727254_a_at) / RFU PIWIL2 (11732686_x_at) / Fold change /veh PIWIL2 (11732686_x_at) / RFU ORM1 (11744905_x_at) / Fold change /veh ORM1 (11744905_x_at) / RFU CCDC152 (11743942_at) / Fold change /veh CCDC152 (11743942_at) / RFU ECM1 (11717891_a_at) / Fold change /veh ECM1 (11717891_a_at) / RFU IL23R (11748794_a_at) / Fold change /veh IL23R (11748794_a_at) / RFU TNFAIP8L3 (11732012_x_at) / Fold change /veh TNFAIP8L3 (11732012_x_at) / RFU MBOAT4 (11741988_at) / Fold change /veh MBOAT4 (11741988_at) / RFU 11764193_at / Fold change /veh 11764193_at / RFU TMEM53 (11763286_at) / Fold change /veh TMEM53 (11763286_at) / RFU MAGEB2 (11727129_at) / Fold change /veh MAGEB2 (11727129_at) / RFU TMEM200A (11744735_a_at) / Fold change /veh TMEM200A (11744735_a_at) / RFU CCDC152 (11751479_a_at) / Fold change /veh CCDC152 (11751479_a_at) / RFU FAM211A (11726209_a_at) / Fold change /veh FAM211A (11726209_a_at) / RFU RGS16 (11746705_a_at) / Fold change /veh RGS16 (11746705_a_at) / RFU VCAN (11755009_s_at) / Fold change /veh VCAN (11755009_s_at) / RFU RHOB (11743442_s_at) / Fold change /veh RHOB (11743442_s_at) / RFU RGS16 (11720943_a_at) / Fold change /veh RGS16 (11720943_a_at) / RFU RGS16 (11720944_at) / Fold change /veh RGS16 (11720944_at) / RFU, VPS4B / Fold change vs veh, VPS4B / RFU, CREB1 / Fold change vs veh, CREB1 / RFU, DNAJC13 / Fold change vs veh, DNAJC13 / RFU, GNAQ / Fold change vs veh, GNAQ / RFU, CDK5R1 / Fold change vs veh, CDK5R1 / RFU, ZRANB3 / Fold change vs veh, ZRANB3 / RFU, CUL4A / Fold change vs veh, CUL4A / RFU, CCNY / Fold change vs veh, CCNY / RFU, UFL1 / Fold change vs veh, UFL1 / RFU, COG3 / Fold change vs veh, COG3 / RFU, DIAPH2 / Fold change vs veh, DIAPH2 / RFU, SKA2 / Fold change vs veh, SKA2 / RFU, AFF3 / Fold change vs veh, AFF3 / RFU, LMF1 / Fold change vs veh, LMF1 / RFU, IPO11 / Fold change vs veh, IPO11 / RFU, DFFB / Fold change vs veh, DFFB / RFU, FOXP1 / Fold change vs veh, FOXP1 / RFU, CARD8 / Fold change vs veh, CARD8 / RFU, STRN3 / Fold change vs veh, STRN3 / RFU, ADK / Fold change vs veh, ADK / RFU, RASSF2 / Fold change vs veh, RASSF2 / RFU, WIPF1 / Fold change vs veh, WIPF1 / RFU, LARP1B / Fold change vs veh, LARP1B / RFU, RASA1 / Fold change vs veh, RASA1 / RFU, RB1 / Fold change vs veh, RB1 / RFU, PPFIA1 / Fold change vs veh, PPFIA1 / RFU, MAT2A / Fold change vs veh, MAT2A / RFU, CCT5 / Fold change vs veh, CCT5 / RFU, WDR92 / Fold change vs veh, WDR92 / RFU, CUX1 / Fold change vs veh, CUX1 / RFU, TTC7A / Fold change vs veh, TTC7A / RFU, TMEM135 / Fold change vs veh, TMEM135 / RFU, DEPTOR / Fold change vs veh, DEPTOR / RFU, CPM / Fold change vs veh, CPM / RFU, DNAJB6 / Fold change vs veh, DNAJB6 / RFU, CACNA2D3 / Fold change vs veh, CACNA2D3 / RFU, DTX4 / Fold change vs veh, DTX4 / RFU, TFCP2 / Fold change vs veh, TFCP2 / RFU, GMCL1 /// GMCL1P1 / Fold change vs veh, GMCL1 /// GMCL1P1 / RFU, AEBP2 / Fold change vs veh, AEBP2 / RFU, SNHG1 /// SNORD22 /// SNORD25 /// SNORD26 /// SNORD27 /// SNORD28 /// SNORD29 /// SNORD31 / Fold change vs veh, SNHG1 /// SNORD22 /// SNORD25 /// SNORD26 /// SNORD27 /// SNORD28 /// SNORD29 /// SNORD31 / Fold change (Aza/veh), C12orf56 (ProbeSet 11735607_a_at) / Fold change (ACY-1035/veh), C12orf56 (ProbeSet 11735607_a_at) / Fold change (Aza/veh), FGFR1OP (ProbeSet 11751329_s_at) / Fold change (ACY-1035/veh), FGFR1OP (ProbeSet 11751329_s_at) / Fold change (Aza/veh), VPS36 (ProbeSet 11739960_a_at) / Fold change (ACY-1035/veh), VPS36 (ProbeSet 11739960_a_at) / RFU SYPL1 (11715823_x_at) / Fold change /veh SYPL1 (11715823_x_at) / RFU IGFBP7 (11715501_s_at) / Fold change /veh IGFBP7 (11715501_s_at) / RFU REEP3 (11722064_at) / Fold change /veh REEP3 (11722064_at) / RFU IGLL1 (11728026_x_at) / Fold change /veh IGLL1 (11728026_x_at): dose or concentration left out as unconfirmed
Conditions: ProbeSet 11747937_a_at; LIST D

Nc1ncn([C@@H]2O[C@H](CO)[C@@H](O)[C@H]2O)c(=O)n1 [azacitidine]
RFU, DNAJB6: 212.79 RFU
